Assay results from patent US20260021098A1, “METHODS OF TREATMENT OF JAK INHIBITION RESPONSIVE CONDITIONS WITH DEUTERATED JAK INHIBITORS” (Sun Pharmaceutical Industries, Inc., priority 2024, published 2026).

Assay: Drug-drug interaction study of Compound (I) and itraconazole, plasma concentration data
Format: in vivo, human
Conditions: 12 mg Compound (I) with 200 mg itraconazole (Test), healthy volunteers

## [2H]C1([2H])C([C@@H](CC#N)n2cc(-c3ncnc4[nH]ccc34)cn2)C([2H])([2H])C([2H])([2H])C1([2H])[2H] [Compound (I), (R)-3-(4-(7H-pyrrolo[2,3-d]pyrimidin-4-yl)-1H-pyrazol-1-yl)-3-(cyclopentyl-2,2,3,3,4,4,5,5-d8) propanenitrile]
  t1/2: 4.62 h
